US20230190852A1, “COMPOSITIONS AND METHODS FOR JOINT HEALTH” (Unigen, Inc., priority 2013, published 2023)
Several values for one entry are separate records, joined by “and”; a condition that tells them apart may be missing. Identical values can stand only once.

Legend:
[1] = test system: Wistar rats; experiment: Adjuvant-induced arthritis (AIA) rat model (paw edema, allodynia, ankle width); format: in vivo; parameters: Paw edema, Mean ± SD: unit not given beside the values; Allodynia, Mean ± SD / Ankle Width, Mean ± SD: unit not given here; settings: for reduction in ankle diameter vs. vehicle control / reduction in pain sensitivity (allodynia) / reduction in paw edema vs. vehicle control / Allodynia, Mean ± SD / Paw edema, Mean ± SD: 100 mg/kg oral daily; for Ankle Width, Mean ± SD: AIA rats, oral 100 mg/kg; for Allodynia, Mean ± SD / Paw edema, Mean ± SD: AIA model, Wistar rats
Procedure: This adjuvant-induced rat arthritis model was used to evaluate the anti-pain and anti-inflammatory activity of a Curcuma:Morus (C:M) composition. Purpose bred female Wistar rats weighing 150-175 g (Charles River Laboratories, Inc., Wilmington, Mass.) were acclimated upon arrival for a week before being assigned randomly to their respective group. The rats were provided with fresh water and rodent chow diet ad libitum while being housed in a temperature controlled room (22.2° C.) on a 12 hour light-dark cycle. Treatment was started a day before antigen inoculation, wherein animals (n=9) were orally gavaged with a positive control ibuprofen, a 1C:1M test article, or a vehicle only control (propylene glycol). On the next day, arthritis was induced by sensitizing rats with an injection of complete Freund's adjuvant containing 5 mg/ml (w/v) suspension of heat killed Mycobacterium tuberculosis in liquid paraffin into the subplantar region of right hind paw of sedated rats (Currey, Ann. Rheum. Dis. 29:314, 1970; Whitehouse et al., Can. Med. Assoc. J. 129:249, 1983) an hour after a second treatment dose.
(§1) Treatment with the controls or test articles was started a day before intraplantar injection of complete adjuvant into the right hind paw. The anti-inflammatory effect of a C:M composition was reflected in the measured change in paw edema. Rats (n=9) were treated orally with 1C:1M composition (200 mg/kg, 100 mg/kg or 50 mg/kg), ibuprofen (100 mg/kg) or vehicle for 14 days. Data are expressed as mean±SD and p-values were calculated against vehicle. Paw edema was measured with the use of a plethysmometer (IITC, Woodland Hills, Calif.; Model 520) on day 1 (before antigen), day 3, 5, 7, 9 and 13 after antigen injection.
Treatment with the controls or test articles was started a day before intraplantar injection of complete adjuvant into the right hind paw. The anti-pain effect of a C:M composition was reflected by allodynia (induced pain). Rats (n=9) were treated orally with 1C:1M composition (200 mg/kg, 100 mg/kg or 50 mg/kg), ibuprofen (100 mg/kg) or vehicle for 14 days. Data are expressed as mean±SD and p-values were calculated against vehicle. Allodynia was evaluated by responsiveness to pressure applied perpendicular to the central plantar surface of the right hind paw using the Randall—Selitto test (Randall and Selitto, Arch. Intl Pharmacodyn Therap. 133:233, 1957). A positive response to the applied mechanical pressure, noted by sharp withdrawal of the paw, was recorded automatically by an electronic Von Frey Anesthesiometer (2390 series Electrovonfrey, IITC, Woodland Hills, Calif.) (Vivancos et al., 2004).
as §1, with “ankle diameter.” for “paw edema.”, “vehicle Ankle diameter” for “vehicle. Paw edema”, “using” for “with the use of”, “Pocket Thickness Gage (7309, Mitutoyo corp. Japan)” for “plethysmometer (IITC, Woodland Hills, Calif.; Model 520)”

[2] = test system: CD-1 mice; experiment: Visceral pain perception model (Writhing's test, acetic acid); format: in vivo
Procedure: Mice (n=6 per group) were habituated under an inverted Plexiglas observation chamber for 30 minutes to allow them to acclimatize to their surroundings. Animals were orally administered treatment articles at different doses, […], or vehicle control (propylene glycol) 30 minutes before intraperitoneal administration of freshly made acetic acid solution (0.7% in 0.9% NaCl) at 10 ml/kg using a 26 gauge needle. The experiment was carried out at room temperature. After the challenge, each animal was placed back into its own individual section of the observation chamber and the number of constrictions of the abdominal muscle together with stretching was counted cumulatively over a period of 30 minutes (Collier et al., Br. J. Pharmacol. Chemother. 32:295, 1968).

[3] = 200 mg/kg oral, vs vehicle, CD-1 mice

Compound: CC(C)Cc1ccc(C(C)C(=O)O)cc1 (stereo not shown) [Ibuprofen]
- reduction in ankle diameter vs. vehicle control ([1]; day 3): 37.2%
- reduction in pain sensitivity (allodynia) ([1]; day 3): 31.3%
- reduction in paw edema vs. vehicle control ([1]; day 3): 28.8%
- reduction in ankle diameter vs. vehicle control ([1]; day 5): 34.8%
- reduction in pain sensitivity (allodynia) ([1]; day 5): 39.5%
- reduction in paw edema vs. vehicle control ([1]; day 5): 21.1%
- reduction in ankle diameter vs. vehicle control ([1]; day 7): 36.8%
- reduction in pain sensitivity (allodynia) ([1]; day 7): 48.8%
- reduction in paw edema vs. vehicle control ([1]; day 7): 19.4%
- reduction in ankle diameter vs. vehicle control ([1]; day 9): 33.5%
- reduction in pain sensitivity (allodynia) ([1]; day 9): 52.5%
- reduction in paw edema vs. vehicle control ([1]; day 9): 24.3%
- reduction in ankle diameter vs. vehicle control ([1]; day 13): 44.2%
- reduction in pain sensitivity (allodynia) ([1]; day 13): 52.5%
- reduction in paw edema vs. vehicle control ([1]; day 13): 32.7%
- Ankle Width, Mean ± SD ([1]; Day 3): 1.1 ± 0.1
- Ankle Width, Mean ± SD ([1]; Day 5): 1.0 ± 0.1
- Ankle Width, Mean ± SD ([1]; Day 7): 1.2 ± 0.1
- Ankle Width, Mean ± SD ([1]; Day 9): 1.0 ± 0.2
- Ankle Width, Mean ± SD ([1]; Day 13): 0.8 ± 0.1
- Allodynia, Mean ± SD ([1]; Day 3): 67.4 ± 5.6
- Paw edema, Mean ± SD ([1]; Day 3): 3.5 ± 0.7
- Allodynia, Mean ± SD ([1]; Day 5): 54.8 ± 2.6
- Paw edema, Mean ± SD ([1]; Day 5): 3.1 ± 0.8
- Allodynia, Mean ± SD ([1]; Day 7): 43.0 ± 4.6
- Paw edema, Mean ± SD ([1]; Day 7): 3.1 ± 0.7
- Allodynia, Mean ± SD ([1]; Day 9): 38.8 ± 2.3
- Paw edema, Mean ± SD ([1]; Day 9): 2.7 ± 0.6
- Allodynia, Mean ± SD ([1]; Day 13): 32.9 ± 2.6
- Paw edema, Mean ± SD ([1]; Day 13): 2.1 ± 0.58
- Max % inhibition of visceral pain sensitivity ([2]; 100 mg/kg oral): 67.6%
- Visceral Pain Sensitivity % ↓ vs. Vehicle ([2]; 100 mg/kg oral): 56.1%
- % reduction of pain behavior ([2]; 200 mg/kg oral): 67.4% and 46.0%
- number of abdominal constrictions / behavioral responses in 30 minutes, Mean ± SD ([2]; 200 mg/kg oral): 25.3±14.3 and 41.8±12.6
- Visceral pain sensitivity, behavioral responses, Mean ± SD ([2]; 200 mg/kg oral 30 min before acetic acid i.p., observed 30 minutes, CD-1 mice): 34.5 ± 12.7 and 25.3 ± 14.3 and 41.8 ± 12.6
- Visceral pain sensitivity, % Inhibition [2, 3]: 67.4% and 46.0%
- Visceral pain sensitivity, % inhibition vs vehicle [2, 3]: 64.1%
